Experimental data reported in PMC9556824, “Design, synthesis and computational study of new benzofuran hybrids as dual PI3K/VEGFR2 inhibitors targeting cancer” (Scientific Reports, 2022).

How the values were obtained:
[1] = test system: human lung fibroblast (WI38); assay: In vitro cytotoxicity against human normal cell line (MTT); format: cell-based; details: Homo sapiens, WI-38, human normal cell line WI38; mean ± SD, n = 3
Source text: (§1) The anticancer agent's selectivity for cancer cells is a critical consideration for any researcher, as it can decrease the molecule's adverse effects on normal human cells.

[2] = test system: mammary gland breast cancer (MCF-7); assay: Antitumor screening using MTT assay; details: Homo sapiens; for IC50: MCF7, read-out: In-vitro cytotoxicity IC50 (µM) MCF-7
[3] = test system: Hepatocellular carcinoma (HePG2); assay: Antitumor screening using MTT assay; format: cell-based, human; details: Homo sapiens; for IC50: mean ± SD, n = 3, read-out: In-vitro cytotoxicity IC50 (µM) HePG2
Source text: (§2) Hepatocellular carcinoma (HePG2), mammary gland breast cancer (MCF-7), epithelioid carcinoma cervix cancer (Hela), and human prostate cancer were included on the panel (PC3). […] The cell lines were obtained from the American Type Culture Collection (ATCC) through VACSERA, a Cairo-based holding firm for biological goods and vaccines.
(§3) The panel consisted of hepatocellular carcinoma (HePG2), mammary gland breast cancer (MCF-7), epithelioid carcinoma cervix cancer (Hela) and human prostate cancer (PC3). Human lung fibroblast (WI38) was used to assay the cytotoxicity effect on normal cell. The cell lines were obtained from ATCC via Holding company for biological products and vaccines (VACSERA), Cairo, Egypt. The cytotoxic activity was defined as the concentration of the compound that causes 50% growth inhibition compared with the growth of untreated cells.

[4] = test system: epithelioid carcinoma cervix cancer (Hela); assay: Antitumor screening using MTT assay; details: Homo sapiens, HeLa; for IC50: read-out: In-vitro cytotoxicity IC50 (µM) Hela
Source text: as §2, §3

[5] = test system: human prostate cancer (PC3); assay: Antitumor screening using MTT assay; details: Homo sapiens; for IC50: read-out: In-vitro cytotoxicity IC50 (µM) PC3
Source text: as §2, §3

[6] = In vitro cytotoxicity against human normal cell line (MTT); format: cell-based; details: human, WI38 human lung fibroblast cells (normal cell line), WI38, read-out: Average of Relative viability of cells (%)
Source text: as §1

[7] = target: human PI3Kα (Homo sapiens, UniProt P42336); assay: Human PI3Kα enzyme inhibition assay (ELISA)
Protocol: PI3Kα and VEGFR-2 activity were verified by enzyme-linked immunosorbent assay (ELISA) assay technique. […] Then, the mean absorbance of each group of standard and tested compounds was determined. The standard curve was drawn on log–log paper with the absorbance on the Y-axis and the standard concentration on the X-axis.

[8] = MCF7, read-out: Average of Relative viability of cells (%)
[9] = read-out: Average of Relative viability of cells (%)

Sequence of human PI3Kα (P42336 whole entry): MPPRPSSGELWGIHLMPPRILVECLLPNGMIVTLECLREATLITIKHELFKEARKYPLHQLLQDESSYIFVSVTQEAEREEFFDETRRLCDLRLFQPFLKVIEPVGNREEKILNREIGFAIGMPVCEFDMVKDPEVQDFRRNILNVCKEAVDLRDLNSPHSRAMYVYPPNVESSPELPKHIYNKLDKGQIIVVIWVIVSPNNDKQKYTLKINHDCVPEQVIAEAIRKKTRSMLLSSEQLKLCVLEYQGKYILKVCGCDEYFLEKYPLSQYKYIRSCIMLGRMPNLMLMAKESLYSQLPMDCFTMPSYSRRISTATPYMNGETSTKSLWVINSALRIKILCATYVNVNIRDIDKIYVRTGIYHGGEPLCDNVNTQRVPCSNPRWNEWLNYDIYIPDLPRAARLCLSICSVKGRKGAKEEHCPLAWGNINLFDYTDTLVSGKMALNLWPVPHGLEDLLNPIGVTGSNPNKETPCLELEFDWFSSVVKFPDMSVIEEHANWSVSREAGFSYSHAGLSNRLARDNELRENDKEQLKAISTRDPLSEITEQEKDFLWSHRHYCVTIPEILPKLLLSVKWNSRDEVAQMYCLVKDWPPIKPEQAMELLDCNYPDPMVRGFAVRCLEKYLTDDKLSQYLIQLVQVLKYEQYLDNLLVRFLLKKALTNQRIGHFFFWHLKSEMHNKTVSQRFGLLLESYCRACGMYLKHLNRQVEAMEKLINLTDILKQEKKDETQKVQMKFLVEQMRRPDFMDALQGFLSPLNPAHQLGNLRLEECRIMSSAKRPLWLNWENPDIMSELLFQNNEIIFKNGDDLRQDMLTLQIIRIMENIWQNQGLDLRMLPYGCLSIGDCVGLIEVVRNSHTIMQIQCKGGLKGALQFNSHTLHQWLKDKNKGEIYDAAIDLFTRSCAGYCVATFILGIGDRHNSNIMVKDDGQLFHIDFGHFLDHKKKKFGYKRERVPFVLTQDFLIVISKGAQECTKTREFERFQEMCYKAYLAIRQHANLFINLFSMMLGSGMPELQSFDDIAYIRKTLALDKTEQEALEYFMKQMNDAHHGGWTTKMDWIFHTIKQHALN
Sequence of human PI3Kα (P27986 whole entry partner): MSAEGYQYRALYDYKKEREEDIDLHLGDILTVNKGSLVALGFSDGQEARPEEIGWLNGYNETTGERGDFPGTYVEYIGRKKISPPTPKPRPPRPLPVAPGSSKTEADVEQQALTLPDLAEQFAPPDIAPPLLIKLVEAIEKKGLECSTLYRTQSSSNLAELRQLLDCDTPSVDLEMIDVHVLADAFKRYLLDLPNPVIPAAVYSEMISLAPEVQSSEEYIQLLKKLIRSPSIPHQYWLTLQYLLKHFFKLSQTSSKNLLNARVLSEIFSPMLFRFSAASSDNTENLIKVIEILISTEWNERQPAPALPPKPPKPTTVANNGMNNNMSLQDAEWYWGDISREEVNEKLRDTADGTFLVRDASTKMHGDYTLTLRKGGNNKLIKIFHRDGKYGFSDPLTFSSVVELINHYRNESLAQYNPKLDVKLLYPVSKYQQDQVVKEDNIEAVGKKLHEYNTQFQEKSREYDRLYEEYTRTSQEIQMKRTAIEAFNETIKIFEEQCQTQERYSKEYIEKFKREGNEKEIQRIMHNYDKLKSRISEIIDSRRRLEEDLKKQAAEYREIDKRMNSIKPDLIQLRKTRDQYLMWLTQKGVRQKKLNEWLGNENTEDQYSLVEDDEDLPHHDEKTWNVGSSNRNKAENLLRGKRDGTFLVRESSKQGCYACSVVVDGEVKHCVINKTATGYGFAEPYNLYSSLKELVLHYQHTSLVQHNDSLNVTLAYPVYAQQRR

For `C/C(=N\N=C\c1ccc(O)cc1)c1cc2ccccc2o1` [Compound 11, (E)-1-[1-(benzofuran-2-yl)ethylidene]-2-((E)-4-hydroxybenzylidene)hydrazine], the IC50 [1] was 43.2 ± 2.9 µM, the IC50 [2] was > 100 µM and the IC50 [3] was 84.9 ± 3.2 µM. For the same compound, the melting point was 154 to 156 °C, the IC50 [4] was 89.3 ± 3.2 µM and the IC50 [5] was > 100 µM.
In the case of `C\C(=N/N=C/C=C/c1ccccc1)c1cc2ccccc2o1` [Compound 12], the IC50 [1] is reported as 56.5 ± 3.2 µM, the viability at 1.56 µM ([6]; Conc. 1.56 µM) is reported as 100% and the viability at 3.125 µM ([6]; Conc. 3.125 µM) is reported as 100%. It also gave a viability at 6.25 µM ([6]; Conc. 6.25 µM) of 91.3%, a viability at 12.5 µM ([6]; Conc. 12.5 µM) of 78.1% and a viability at 25 µM ([6]; Conc. 25 µM) of 61.9%. The viability at 50 µM ([6]; Conc. 50 µM) was 52.5%, the viability at 100 µM ([6]; Conc. 100 µM) was 41% and the viability at 1.56 µM [2, 8] was 100%. For the same compound, the viability at 3.125 µM [2, 8] was 100%, the viability at 6.25 µM [2, 8] was 94.7% and the viability at 12.5 µM [2, 8] was 81.8%. For the same compound, the viability at 25 µM [2, 8] was 70.2%, the viability at 50 µM [2, 8] was 57.1% and the viability at 100 µM [2, 8] was 43.2%. For the same compound, the IC50 [2] was 68.4 ± 3.6 µM, the viability at 1.56 µM ([3]; Conc. 1.56 µM, read-out: Average of Relative viability of cells (%)) was 100% and the viability at 3.125 µM ([3]; Conc. 3.125 µM, read-out: Average of Relative viability of cells (%)) was 100%. For the same compound, the viability at 6.25 µM ([3]; Conc. 6.25 µM, read-out: Average of Relative viability of cells (%)) was 100%, the viability at 12.5 µM ([3]; Conc. 12.5 µM, read-out: Average of Relative viability of cells (%)) was 91.3% and the viability at 25 µM ([3]; Conc. 25 µM, read-out: Average of Relative viability of cells (%)) was 70.5%. It also gave a viability at 50 µM ([3]; Conc. 50 µM, read-out: Average of Relative viability of cells (%)) of 54%, a viability at 100 µM ([3]; Conc. 100 µM, read-out: Average of Relative viability of cells (%)) of 39.4% and an IC50 [3] of 62 ± 3.2 µM. For the same compound, the melting point was 141 to 143 °C, the viability at 1.56 µM [4, 9] was 100% and the viability at 3.125 µM [4, 9] was 100%. For the same compound, the viability at 6.25 µM [4, 9] was 86.6%, the viability at 12.5 µM [4, 9] was 72.3% and the viability at 25 µM [4, 9] was 59.2%. It also gave a viability at 50 µM [4, 9] of 41.8%, a viability at 100 µM [4, 9] of 34.1% and an IC50 [4] of 39.8 ± 2.7 µM. For the same compound, the viability at 1.56 µM [5, 9] was 100%, the viability at 3.125 µM [5, 9] was 100% and the viability at 6.25 µM [5, 9] was 98.4%. It also gave a viability at 12.5 µM [5, 9] of 86.6%, a viability at 25 µM [5, 9] of 71.7% and a viability at 50 µM [5, 9] of 55%. It also gave a viability at 100 µM [5, 9] of 47.3% and an IC50 [5] of 74.4 ± 3.9 µM.
For `O=c1cc(N2CCOCC2)oc2c(-c3ccccc3)cccc12` [LY294002, reference compound], the PI3K-α %inh ([7]; conc 0.1 (unit not given)) was 8.66%, the PI3K-α %inh ([7]; conc 1 (unit not given)) was 21.2% and the PI3K-α %inh ([7]; conc 10 (unit not given)) was 54.8%. For the same compound, the PI3K-α %inh ([7]; conc 100 (unit not given)) was 76.7%.
